# Source: patent US6737383B1, “Herbicidal oxadiazolidines” (priority 1999, dated 2004)
# Experiments:
# winter barley = experiment: Test E winter barley; format: in vivo, Hordeum vulgare; conditions: Preemergence
# soybean = experiment: Test B pre/postemergence soybean; format: in vivo, Glycine max
# Summary of the method: (§1)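 Response is a visual 0-to-10 score relative to untreated plants, where 0 means no effect and 10 means complete control, taken twelve to sixteen days after application. Treatments went onto soil at planting and onto foliage of 1- to 4-leaf plants, using a surfactant-containing non-phytotoxic solvent.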
# sugar beet = experiment: Test B pre/postemergence sugar beet; format: in vivo, Beta vulgaris
# Summary of the method: as §1
# blackgrass = experiment: Test E blackgrass; format: in vivo, Alopecurus myosuroides; conditions: Preemergence
# wild oat = experiment: Test E wild oat; format: in vivo, Avena fatua; conditions: Preemergence
# crabgrass = experiment: Test B pre/postemergence crabgrass; format: in vivo, Digitaria sanguinalis
# Summary of the method: as §1
# winter wheat [1] = experiment: Test E winter wheat; format: in vivo, Triticum aestivum; conditions: Preemergence
# winter wheat [2] = experiment: Test E winter wheat; format: in vivo, Triticum aestivum; conditions: Postemergence
# Summary of the method: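 For postemergence, application to 1- to 4-leaf plants growing in a 60:40 sandy loam–potting mix substrate. Formulation: non-phytotoxic solvent mixture plus surfactant. Untreated controls served as the reference for the visual rating after ~21–28 days.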
# Italian ryegrass = experiment: Test E Italian ryegrass; format: in vivo, Lolium multiflorum; conditions: Preemergence
# green foxtail = experiment: Test E green foxtail; format: in vivo, Setaria viridis; conditions: Preemergence
# giant foxtail = experiment: Test B pre/postemergence giant foxtail; format: in vivo, Setaria faberii
# Summary of the method: as §1
# [3] = Rate 125 g/ha, 0 to 100 scale (0 no effect, 100 complete control)
# [4] = Rate 500 g/ha, 0 to 100 scale where 0 is no effect and 100 is complete control
# [5] = Rate 1000 g/ha, 0 to 100 scale, 0 no effect, 100 complete control
# [6] = Preemergence, Rate 62 g/ha, scale of 0 to 10 where 0 is no effect and 10 is complete control
# [7] = Preemergence, Rate 250 g/ha, scale of 0 to 10 where 0 is no effect and 10 is complete control
# [8] = Preemergence, Rate 500 g/ha, scale of 0 to 10 where 0 is no effect and 10 is complete control
# [9] = Rate 125 g/ha, Postemergence, scale of 0 to 10 where 0 is no effect and 10 is complete control
# [10] = Rate 125 g/ha, Preemergence, scale of 0 to 10 where 0 is no effect and 10 is complete control
# [11] = Rate 250 g/ha, Postemergence, scale of 0 to 10 where 0 is no effect and 10 is complete control
# [12] = Rate 500 g/ha, Postemergence, scale 0 to 10, 0 no effect, 10 complete control
compound,measurement,setting,value
CC(C)N(C(=O)n1oc(=O)n(C2CCCC2)c1=O)c1ccc(F)cc1 [Compound 271],"Plant response rating, Barley (winter)",winter barley; [3],35
same,Barley (winter) plant response rating (0 to 100 scale),winter barley; Rate 250 g/ha,45
same,"Plant response rating, Barley (winter)",winter barley; [4],50
same,"Plant response rating, Barley (winter)",winter barley; [5],60
same,Soybean plant response rating,soybean; [6],0
same,Soybean plant response rating,soybean; [7],0
same,"Plant response rating, Soybean",soybean; [8],1
same,Soybean plant response rating,soybean; [9],5
same,Soybean plant response rating,soybean; [10],0
same,"Plant response rating, Soybean",soybean; [11],5
same,Soybean plant response rating,soybean; [12],6
same,Sugarbeets plant response rating,sugar beet; [6],5
same,Sugarbeets plant response rating,sugar beet; [7],8
same,"Plant response rating, Sugarbeets",sugar beet; [8],8
same,Sugarbeets plant response rating,sugar beet; [9],2
same,Sugarbeets plant response rating,sugar beet; [10],6
same,"Plant response rating, Sugarbeets",sugar beet; [11],4
same,Sugarbeets plant response rating,sugar beet; [12],6
same,"Plant response rating, Blackgrass",blackgrass; [3],30
same,Blackgrass plant response rating (0 to 100 scale),blackgrass; Rate 250 g/ha,100
same,"Plant response rating, Blackgrass",blackgrass; [4],80
same,"Plant response rating, Blackgrass",blackgrass; [5],100
same,"Plant response rating, Wild oat",wild oat; [3],50
same,Wild oat plant response rating (0 to 100 scale),wild oat; Rate 250 g/ha,60
same,"Plant response rating, Wild oat",wild oat; [4],65
same,"Plant response rating, Wild oat",wild oat; [5],60
same,Crabgrass plant response rating,crabgrass; [6],3
same,Crabgrass plant response rating,crabgrass; [7],7
same,"Plant response rating, Crabgrass",crabgrass; [8],8
same,Crabgrass plant response rating,crabgrass; [9],1
same,Crabgrass plant response rating,crabgrass; [10],5
same,"Plant response rating, Crabgrass",crabgrass; [11],1
same,Crabgrass plant response rating,crabgrass; [12],5
same,"Plant response rating, Wheat (winter)",winter wheat [1]; [3],30
same,Wheat (winter) plant response rating (0 to 100 scale),winter wheat [1]; Rate 250 g/ha,60
same,"Plant response rating, Wheat (winter)",winter wheat [1]; [4],50
same,"Plant response rating, Wheat (winter)",winter wheat [1]; [5],75
same,"Plant response rating, Wheat (winter)","winter wheat [2]; Rate 125 g/ha, 0 to 100 scale, 0 is no effect, 100 is complete control",10
same,"Plant response rating, Wheat (winter)","winter wheat [2]; Rate 1000 g/ha, 0 to 100 scale where 0 is no effect and 100 is complete control",0
same,Wheat (winter) plant response rating,"winter wheat [2]; Rate 250 g/ha, 0 to 100 scale where 0 is no effect and 100 is complete control",10
same,"Plant response rating, Wheat (winter)","winter wheat [2]; Rate 500 g/ha, 0 to 100 scale, 0 is no effect, 100 is complete control",0
same,"Plant response rating, I. Ryegrass",Italian ryegrass; [3],60
same,I. Ryegrass plant response rating (0 to 100 scale),Italian ryegrass; Rate 250 g/ha,100
same,"Plant response rating, I. Ryegrass",Italian ryegrass; [4],85
same,"Plant response rating, I. Ryegrass",Italian ryegrass; [5],100
same,"Plant response rating, Green foxtail",green foxtail; [3],70
same,Green foxtail plant response rating (0 to 100 scale),green foxtail; Rate 250 g/ha,100
same,"Plant response rating, Green foxtail",green foxtail; [4],100
same,"Plant response rating, Green foxtail",green foxtail; [5],100
same,Giant foxtail plant response rating,giant foxtail; [6],8
same,Giant foxtail plant response rating,giant foxtail; [7],10
same,"Plant response rating, Giant foxtail",giant foxtail; [8],10
same,Giant foxtail plant response rating,giant foxtail; [9],3
same,Giant foxtail plant response rating,giant foxtail; [10],10
same,"Plant response rating, Giant foxtail",giant foxtail; [11],4
same,Giant foxtail plant response rating,giant foxtail; [12],7
